Experimental data reported in PubChem BioAssay AID1918932 (Molecular Pharmacology Branch, DTP, NCI, 2023).
Where “and” joins values, the source holds several entries; their conditions need not be identical. Identical values can stand only once. Each block holds one compound with its values, some of them ahead of it.

System: 171881-019-R-J1-PDC complex spheroid viability
Test: Anticancer human tumor 171881-019-R-J1-PDC patient-derived invasive breast carcinoma cell line growth inhibition
Conditions: for viability, T/C: stronger effect = lower value
How it was run: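 Multicellular complex spheroids of tumor cells with human endothelial cells (HUVEC) and mesenchymal stem cells; the LSD1 inhibitor iadademstat was combined with standard-of-care or investigational agents. Top concentration at or near clinical Cmax, half-log dilutions; final DMSO ≤0.25%.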

[1] = curve of first compound, second compound 0.1 µM
[2] = curve of first compound, second compound 0.316 µM
[3] = curve of first compound, second compound 1 µM
[4] = curve of first compound, second compound 3.16 µM
[5] = curve of first compound, second compound 10 µM
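Also: spheroids exposed to agents for 7 days after 3 days growth.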

Structure (SMILES): CCN(c1cc(-c2ccc(CN3CCOCC3)cc2)cc(C(=O)NCc2c(C)cc(C)[nH]c2=O)c1C)C1CCOCC1 + NC1CCC(NC2CC2c2ccccc2)CC1
IC50 [1]: 2670 nM
IC50 [2]: 2850 nM
IC50 [3]: 2680 nM
IC50 [4]: 2730 nM
IC50 [5]: 2880 nM
viability, T/C (second compound 0.1 µM, first compound 0.00949 µM): 76.3%
viability, T/C (second compound 0.1 µM, first compound 0.03 µM): 85%
viability, T/C (second compound 0.1 µM, first compound 0.0949 µM): 81.3%
viability, T/C (second compound 0.1 µM, first compound 0.3 µM): 101%
viability, T/C (second compound 0.1 µM, first compound 0.949 µM): 74.1%
viability, T/C (second compound 0.1 µM, first compound 3 µM): 47.3%
viability, T/C (second compound 0.316 µM, first compound 0.00949 µM): 84.7%
viability, T/C (second compound 0.316 µM, first compound 0.03 µM): 78.2%
viability, T/C (second compound 0.316 µM, first compound 0.0949 µM): 72.6%
viability, T/C (second compound 0.316 µM, first compound 0.3 µM): 94.3%
viability, T/C (second compound 0.316 µM, first compound 0.949 µM): 76.6%
viability, T/C (second compound 0.316 µM, first compound 3 µM): 48.8%
viability, T/C (second compound 1 µM, first compound 0.00949 µM): 69.2%
viability, T/C (second compound 1 µM, first compound 0.03 µM): 77.3%
viability, T/C (second compound 1 µM, first compound 0.0949 µM): 73.6%
viability, T/C (second compound 1 µM, first compound 0.3 µM): 88.7%
viability, T/C (second compound 1 µM, first compound 0.949 µM): 79.9%
viability, T/C (second compound 1 µM, first compound 3 µM): 47%
viability, T/C (second compound 3.16 µM, first compound 0.00949 µM): 80.6%
viability, T/C (second compound 3.16 µM, first compound 0.03 µM): 81.7%
viability, T/C (second compound 3.16 µM, first compound 0.0949 µM): 84.9%
viability, T/C (second compound 3.16 µM, first compound 0.3 µM): 81.8%
viability, T/C (second compound 3.16 µM, first compound 0.949 µM): 70.3%
viability, T/C (second compound 3.16 µM, first compound 3 µM): 48.3%
viability, T/C (second compound 10 µM, first compound 0.00949 µM): 80.4%
viability, T/C (second compound 10 µM, first compound 0.03 µM): 75.1%
viability, T/C (second compound 10 µM, first compound 0.0949 µM): 76.5%
viability, T/C (second compound 10 µM, first compound 0.3 µM): 90.7%
viability, T/C (second compound 10 µM, first compound 0.949 µM): 77.9%
viability, T/C (second compound 10 µM, first compound 3 µM): 49%

Structure (SMILES): O=C(C=Cn1cnc(-c2cc(C(F)(F)F)cc(C(F)(F)F)c2)n1)NNc1cnccn1 + NC1CCC(NC2CC2c2ccccc2)CC1
IC50 [1]: < 3.16 nM
IC50 [2]: < 3.16 nM
IC50 [3]: < 3.16 nM
IC50 [4]: < 3.16 nM
IC50 [5]: < 3.16 nM
viability, T/C (second compound 0.1 µM, first compound 0.00316 µM): 20%
viability, T/C (second compound 0.1 µM, first compound 0.01 µM): 14.8%
viability, T/C (second compound 0.1 µM, first compound 0.0316 µM): 5.39%
viability, T/C (second compound 0.1 µM, first compound 0.1 µM): 2.15%
viability, T/C (second compound 0.1 µM, first compound 0.316 µM): 2.24%
viability, T/C (second compound 0.1 µM, first compound 1 µM): 2.08%
viability, T/C (second compound 0.316 µM, first compound 0.00316 µM): 20.9%
viability, T/C (second compound 0.316 µM, first compound 0.01 µM): 14.6%
viability, T/C (second compound 0.316 µM, first compound 0.0316 µM): 6.07%
viability, T/C (second compound 0.316 µM, first compound 0.1 µM): 2.35%
viability, T/C (second compound 0.316 µM, first compound 0.316 µM): 6.21%
viability, T/C (second compound 0.316 µM, first compound 1 µM): 2.25%
viability, T/C (second compound 1 µM, first compound 0.00316 µM): 22.7%
viability, T/C (second compound 1 µM, first compound 0.01 µM): 16.1%
viability, T/C (second compound 1 µM, first compound 0.0316 µM): 6.8%
viability, T/C (second compound 1 µM, first compound 0.1 µM): 2.59%
viability, T/C (second compound 1 µM, first compound 0.316 µM): 2.63%
viability, T/C (second compound 1 µM, first compound 1 µM): 4.14%
viability, T/C (second compound 3.16 µM, first compound 0.00316 µM): 24.3%
viability, T/C (second compound 3.16 µM, first compound 0.01 µM): 16.4%
viability, T/C (second compound 3.16 µM, first compound 0.0316 µM): 6.64%
viability, T/C (second compound 3.16 µM, first compound 0.1 µM): 2.73%
viability, T/C (second compound 3.16 µM, first compound 0.316 µM): 2.91%
viability, T/C (second compound 3.16 µM, first compound 1 µM): 2.78%
viability, T/C (second compound 10 µM, first compound 0.00316 µM): 24.7%
viability, T/C (second compound 10 µM, first compound 0.01 µM): 17.3%
viability, T/C (second compound 10 µM, first compound 0.0316 µM): 7.11%
viability, T/C (second compound 10 µM, first compound 0.1 µM): 2.96%
viability, T/C (second compound 10 µM, first compound 0.316 µM): 3.51%
viability, T/C (second compound 10 µM, first compound 1 µM): 3.29%

IC50 (curve of compound): 315 nM and 775 nM
Structure (SMILES): COc1cc(C2c3cc4c(cc3C(OC3OC5COC(C)OC5C(O)C3O)C3COC(=O)C23)OCO4)cc(OC)c1O (centres undefined)
viability, T/C (compound 0.00949 µM): 97.7% and 100%
viability, T/C (compound 0.03 µM): 121% and 90%
viability, T/C (compound 0.0949 µM): 78.5% and 72.5%
viability, T/C (compound 0.3 µM): 51.8% and 64.3%
viability, T/C (compound 0.949 µM): 32.6% and 49.3%
viability, T/C (compound 3 µM): 17.2% and 29.7%

IC50 (curve of compound): 1.8 nM and < 0.949 nM
Structure (SMILES): CCc1c2c(nc3ccc(O)cc13)-c1cc3c(c(=O)n1C2)COC(=O)[C@]3(O)CC
viability, T/C (compound 0.000949 µM): 59.6% and 33.9%
viability, T/C (compound 0.003 µM): 43% and 40.4%
viability, T/C (compound 0.00949 µM): 26.6% and 22%
viability, T/C (compound 0.03 µM): 19.3% and 18.7%
viability, T/C (compound 0.0949 µM): 10.9% and 21%
viability, T/C (compound 0.3 µM): 6.24% and 21.4%
